PMC12467903, “A Sensitive Electrochemical Cholinesterase-Inhibiting Biosensor for Organophosphorus Pesticides Based on Ti3C2TX MXene Quantum Dots” (Biosensors, 2025)

Legend:
Assay type in all cases: biochemical
[1] = target: T1, acetylcholinesterase (AChE) (Electrophorus electricus, UniProt O42275); experiment: electrochemical detection of thiocholine from hydrolysis by immobilized AChE
[2] = target: T1, acetylcholinesterase (AChE); experiment: DPV peak current suppression with immobilized AChE ([…] at […])
[3] = target: T1, acetylcholinesterase (AChE); experiment: electrochemical (DPV/EIS/CV) inhibition of immobilized AChE, acetylthiocholine substrate

T1 sequence (O42275 24-633): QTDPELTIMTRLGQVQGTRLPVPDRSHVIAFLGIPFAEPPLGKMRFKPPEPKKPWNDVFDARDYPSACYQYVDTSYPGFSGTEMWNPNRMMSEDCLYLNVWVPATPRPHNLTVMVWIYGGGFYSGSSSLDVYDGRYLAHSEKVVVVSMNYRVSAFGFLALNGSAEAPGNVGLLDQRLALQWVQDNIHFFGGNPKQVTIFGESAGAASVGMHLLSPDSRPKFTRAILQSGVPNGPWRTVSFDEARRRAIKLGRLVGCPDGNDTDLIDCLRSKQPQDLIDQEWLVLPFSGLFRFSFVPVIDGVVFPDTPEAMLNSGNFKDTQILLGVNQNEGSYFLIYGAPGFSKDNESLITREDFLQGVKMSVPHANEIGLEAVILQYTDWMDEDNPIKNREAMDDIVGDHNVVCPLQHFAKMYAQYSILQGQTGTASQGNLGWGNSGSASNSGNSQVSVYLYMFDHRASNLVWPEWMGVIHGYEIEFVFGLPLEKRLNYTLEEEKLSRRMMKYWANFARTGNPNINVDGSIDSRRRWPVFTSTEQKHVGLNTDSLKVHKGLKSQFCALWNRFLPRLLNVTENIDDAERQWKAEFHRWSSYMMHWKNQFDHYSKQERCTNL

## CC(=O)SCC[N+](C)(C)C [ACTI, acetylthiocholine iodide]
[1]
  electrochemical detection of thiocholine from hydrolysis by immobilized AChE: In the absence of OP, AChE efficiently hydrolyzed ACTI into electroactive thiocholine (TCh)

## COP(=O)(NC(C)=O)SC (stereo not drawn) [ACE, acephate]
[2]
  percent DPV peak current suppression: 37% at 2 nM

## CCOP(=S)(OCC)Oc1nc(Cl)c(Cl)cc1Cl [CPS, chlorpyrifos]
[3]
  Ki: 62 nM
